Test results reported in patent publication US8445636B2, “Antimicrobial and anticancer lipopeptides” (Yeda Research & Development Co. Ltd., priority 2003, dated 2013).
≈ marks a conversion by molar mass, not a printed value. Like-named read-outs stand apart in the source and are kept apart here. Non-standard residues stand in square brackets, D forms with d. Residues, ends and D or L forms follow the SMILES beside them. *: point of attachment. Lauroyl = CCCCCCCCCCCC(=O)*

Key:
Type in all cases: cell-based
[1] = test system: Cryptococcus neoformans ATCC 66031; experiment: microbe, parasite or virus in culture
Protocol: (§1) The antifungal activity of the lipopeptides was examined in sterile 96-well plates (Nunc F96 microtiter plates) in a final volume of 200 μL as follows: 100 µl of a suspension containing fungi at a concentration of 1×10^4 Colony-Forming Units (CFU)/ml in culture medium (RPMI 1640, 0.165 M MOPS with L-glutamine, without NaHCO3) at pH 7.4 or pH 5.5 (adjustment of the pH was done by diluted solutions of HCl and NaOH) were added to 100 μl of water containing the peptide in serial 2-fold dilutions in water. The fungi were incubated in the presence of the lipopeptides for 24-48 h at 35° C. in a Binder KB115 incubator under agitation. Growth inhibition was determined by measuring the absorbance at 620 nm with a Microplate autoreader E1309 (Bio-Tek Instruments). Antifungal activity is expressed as the minimal inhibitory concentration (MIC), the concentration at which 100% inhibition of fungi growth was observed after the incubation time mentioned above. The fungi used were: Aspergillus niger ATCC 9642, Candida albicans ATCC 10231 and Cryptococcus neoformans ATCC 66031. If not indicated otherwise, the fungi growth was detected at pH 7.4.

[2] = test system: Candida albicans ATCC 10231; experiment: microbe, parasite or virus in culture
Protocol: as §1

E. coli D21 = test system: E. coli D21
[3] = test system: Aspergillus fumigatus ATCC 26430; experiment: microbe, parasite or virus in culture
[4] = test system: Staphylococcus aureus ATCC 6538P
Protocol: (§2) The antibacterial activity of the lipopeptides was examined in sterile 96-well plates (Nunc F96 microtiter plates) in a final volume of 100 μl as follows: Aliquots (50 μl) of a suspension containing bacteria at concentration of 1×10^6 Colony-Forming Units (CFU)/ml in culture LB (Lauria broth) medium (pH 7.4 or pH 5.5) were added to 50 μl of water containing the lipopeptide in serial 2-fold dilutions in water. Adjustment of the pH was done by diluted solutions of HCl and NaOH Inhibition of growth was determined by measuring the absorbance at 600 nm with a Microplate autoreader E1309 (Bio-Tek Instruments), after an incubation time of 18-20 h at 37° C. Antibacterial activities were expressed as the minimal inhibitory concentration (MIC), the concentration at which 100% inhibition of growth was observed after 18-20 h of incubation. The bacteria used were: Escherichia coli ATCC 25922, Acinetobacter baumannii ATCC 19606, Pseudomonas aeruginosa ATCC 27853, Staphylococcus aureus ATCC 6538P, Enterococcus faecalis ATCC 29212, Enterobacter cloacae ATCC 49141. The antibacterial activity of lipopeptides was also examined against resistant bacteria: methicilin-resistant Staphylococcus aureus (MRSA) ATCC 700698 and vancomycin-resistant Enterococcus faecium (VRE) ATCC 700221. If not indicated otherwise, the bacterial growth was detected at pH 7.4.

[5] = test system: Acinetobacter baumannii ATCC 19606
Protocol: as §2

[6] = test system: Escherichia coli ATCC 25922
Protocol: as §2

[7] = test system: Pseudomonas aeruginosa ATCC 27853
Protocol: as §2

[8] = ATCC 66031, pH 5.5, read-out: Minimal inhibitory concentrations, C. Neofor. With serum
[9] = ATCC 66031, pH 5.5, read-out: Minimal inhibitory concentrations, C. Neofor. Without serum
[10] = ATCC 66031, pH 7.4, read-out: Minimal inhibitory concentrations, C. Neofor. With serum
[11] = ATCC 66031, pH 7.4, read-out: Minimal inhibitory concentrations, C. Neofor. Without serum
[12] = ATCC 10231, pH 5.5, read-out: Minimal inhibitory concentrations, C. Albicans With serum
[13] = ATCC 10231, pH 5.5, read-out: Minimal inhibitory concentrations, C. Albicans Without serum
[14] = ATCC 10231, pH 7.4, read-out: Minimal inhibitory concentrations, C. Albicans With serum
[15] = ATCC 10231, pH 7.4, read-out: Minimal inhibitory concentrations, C. Albicans Without serum
[16] = ATCC 26430, pH 5.5, read-out: Minimal inhibitory concentrations, A. Fumig. With serum
[17] = ATCC 26430, pH 5.5, read-out: Minimal inhibitory concentrations, A. Fumig. Without serum
[18] = ATCC 26430, pH 7.4, read-out: Minimal inhibitory concentrations, A. Fumig. With serum
[19] = ATCC 26430, pH 7.4, read-out: Minimal inhibitory concentrations, A. Fumig. Without serum

## CCCCCCCCCCCC(=O)N[C@H](CC(C)C)C(=O)N[C@@H](Cc1c[nH]cn1)C(=O)N[C@@H](Cc1c[nH]cn1)C(=O)N[C@H](CC(C)C)C(=O)N[C@H](CC(C)C)C(=O)N[C@@H](Cc1c[nH]cn1)C(=O)N[C@@H](Cc1c[nH]cn1)C(=O)N[C@H](CC(C)C)C(=O)N[C@H](CC(C)C)C(=O)N[C@@H](Cc1c[nH]cn1)C(=O)N[C@@H](Cc1c[nH]cn1)C(=O)N[C@H](CC(C)C)C(N)=O [lipopeptide 26, (CH3-(CH2)10-CO-)-D-Leu-His-His-D-Leu-D-Leu-His-His-D-Leu-D-Leu-His-His-D-Leu-NH2] (Lauroyl-[dL]HH[dL][dL]HH[dL][dL]HH[dL]-NH2)
[1]; Table 12, with serum, pH 7.4, read-out: Minimal inhibitory concentrations, C. Neofor. With serum
  MIC: 100 µM (≈ 170 µg/mL)
[1]; Table 12, without serum, pH 7.4, read-out: Minimal inhibitory concentrations, C. Neofor. Without serum
  MIC: 12.5 µM (≈ 21.3 µg/mL)
[1]; Table 13, pH 5.5, with serum, read-out: Minimal inhibitory concentrations, C. Neofor. With serum
  MIC: 50 µM (≈ 85.1 µg/mL)
[1]; Table 13, pH 5.5, without serum, read-out: Minimal inhibitory concentrations, C. Neofor. Without serum
  MIC: 3.125 µM (≈ 5.32 µg/mL)
[2]; Table 12, with serum, pH 7.4, read-out: Minimal inhibitory concentrations, C. Albicans With serum
  MIC: >100 µM
[2]; Table 12, without serum, pH 7.4, read-out: Minimal inhibitory concentrations, C. Albicans Without serum
  MIC: >100 µM
[2]; Table 13, pH 5.5, with serum, read-out: Minimal inhibitory concentrations, C. Albicans With serum
  MIC: >100 µM
[2]; Table 13, pH 5.5, without serum, read-out: Minimal inhibitory concentrations, C. Albicans Without serum
  MIC: 9.375 µM (≈ 15.9 µg/mL)
E. coli D21; Table 6, pH 7.4
  Minimal inhibitory concentrations, E. Coli D21: >100 µM
E. coli D21; Table 7, pH 5.5
  Minimal inhibitory concentrations, E. Coli D21: 100 µM (≈ 170 µg/mL)
[3]; Table 12, with serum, pH 7.4, read-out: Minimal inhibitory concentrations, A. Fumig. With serum
  MIC: 100 µM (≈ 170 µg/mL)
[3]; Table 12, without serum, pH 7.4, read-out: Minimal inhibitory concentrations, A. Fumig. Without serum
  MIC: >100 µM
[3]; Table 13, pH 5.5, with serum, read-out: Minimal inhibitory concentrations, A. Fumig. With serum
  MIC: 100 µM (≈ 170 µg/mL)
[3]; Table 13, pH 5.5, without serum, read-out: Minimal inhibitory concentrations, A. Fumig. Without serum
  MIC: 6.25 µM (≈ 10.6 µg/mL)
[4]; Table 6, pH 7.4
  Minimal inhibitory concentrations, S. aureus II ATCC 6538P: 100 µM (≈ 170 µg/mL)
[4]; Table 7, pH 5.5
  Minimal inhibitory concentrations, S. aureus II ATCC 6538P: >100 µM
[5]; Table 6, pH 7.4
  Minimal inhibitory concentrations, A. baumannii ATCC 19606: 100 µM (≈ 170 µg/mL)
[5]; Table 7, pH 5.5
  Minimal inhibitory concentrations, A. baumannii ATCC 19606: >100 µM
[6]; Table 6, pH 7.4
  Minimal inhibitory concentrations, E. Coli ATCC 25922: >100 µM
[6]; Table 7, pH 5.5
  Minimal inhibitory concentrations, E. Coli ATCC 25922: >100 µM
[7]; Table 6, pH 7.4
  Minimal inhibitory concentrations, P. Aeruginosa ATCC 27853: >100 µM
[7]; Table 7, pH 5.5
  Minimal inhibitory concentrations, P. Aeruginosa ATCC 27853: 100 µM (≈ 170 µg/mL)

## CCCCCCCCCCCC(=O)N[C@H](CC(C)C)C(=O)N[C@@H](CCCNC(=N)N)C(=O)N[C@@H](Cc1c[nH]cn1)C(=O)N[C@H](CC(C)C)C(=O)N[C@H](CC(C)C)C(=O)N[C@@H](CCCNC(=N)N)C(=O)N[C@@H](Cc1c[nH]cn1)C(=O)N[C@H](CC(C)C)C(=O)N[C@H](CC(C)C)C(=O)N[C@@H](CCCNC(=N)N)C(=O)N[C@@H](Cc1c[nH]cn1)C(=O)N[C@H](CC(C)C)C(N)=O [lipopeptide 27, (CH3-(CH2)10-CO-)-D-Leu-Arg-His-D-Leu-D-Leu-Arg-His-D-Leu-D-Leu-Arg-His-D-Leu-NH2] (Lauroyl-[dL]RH[dL][dL]RH[dL][dL]RH[dL]-NH2)
[1]; [8]
  MIC: 25 µM (≈ 44 µg/mL)
[1]; [9]
  MIC: 1.56 µM (≈ 2.74 µg/mL)
[1]; [10]
  MIC: 25 µM (≈ 44 µg/mL)
[1]; [11]
  MIC: 3.125 µM (≈ 5.49 µg/mL)
[2]; [12]
  MIC: >100 µM
[2]; [13]
  MIC: 25 µM (≈ 44 µg/mL)
[2]; [14]
  MIC: >100 µM
[2]; [15]
  MIC: 12.5 µM (≈ 22 µg/mL)
E. coli D21; D21, pH 5.5
  Minimal inhibitory concentrations, E. Coli D21: 100 µM (≈ 176 µg/mL)
E. coli D21; D21, pH 7.4
  Minimal inhibitory concentrations, E. Coli D21: 100 µM (≈ 176 µg/mL)
[3]; [16]
  MIC: 100 µM (≈ 176 µg/mL)
[3]; [17]
  MIC: 6.25 µM (≈ 11 µg/mL)
[3]; [18]
  MIC: 100 µM (≈ 176 µg/mL)
[3]; [19]
  MIC: 25 µM (≈ 44 µg/mL)
[4]; ATCC 6538, pH 5.5
  Minimal inhibitory concentrations, S. aureus II ATCC 6538P: 100 µM (≈ 176 µg/mL)
[4]; ATCC 6538, pH 7.4
  Minimal inhibitory concentrations, S. aureus II ATCC 6538P: 100 µM (≈ 176 µg/mL)
[5]; ATCC 19606, pH 5.5
  Minimal inhibitory concentrations, A. baumannii ATCC 19606: >100 µM
[5]; ATCC 19606, pH 7.4
  Minimal inhibitory concentrations, A. baumannii ATCC 19606: 100 µM (≈ 176 µg/mL)
[6]; ATCC 25922, pH 5.5
  Minimal inhibitory concentrations, E. Coli ATCC 25922: 100 µM (≈ 176 µg/mL)
[6]; ATCC 25922, pH 7.4
  Minimal inhibitory concentrations, E. Coli ATCC 25922: 100 µM (≈ 176 µg/mL)
[7]; ATCC 27853, pH 5.5
  Minimal inhibitory concentrations, P. Aeruginosa ATCC 27853: 100 µM (≈ 176 µg/mL)
[7]; ATCC 27853, pH 7.4
  Minimal inhibitory concentrations, P. Aeruginosa ATCC 27853: 100 µM (≈ 176 µg/mL)

## CCCCCCCCCCCC(=O)N[C@H](CC(C)C)C(=O)N[C@@H](CCCCN)C(=O)N[C@@H](Cc1c[nH]cn1)C(=O)N[C@H](CC(C)C)C(=O)N[C@H](CC(C)C)C(=O)N[C@@H](CCCCN)C(=O)N[C@@H](Cc1c[nH]cn1)C(=O)N[C@H](CC(C)C)C(=O)N[C@H](CC(C)C)C(=O)N[C@@H](CCCCN)C(=O)N[C@@H](Cc1c[nH]cn1)C(=O)N[C@H](CC(C)C)C(N)=O [lipopeptide 28, (CH3-(CH2)10-CO-)-D-Leu-Lys-His-D-Leu-D-Leu-Lys-His-D-Leu-D-Leu-Lys-His-D-Leu-NH2] (Lauroyl-[dL]KH[dL][dL]KH[dL][dL]KH[dL]-NH2)
[1]; [8]
  MIC: 12.5 µM (≈ 20.9 µg/mL)
[1]; [9]
  MIC: <0.78 µM
[1]; [10]
  MIC: 6.25 µM (≈ 10.5 µg/mL)
[1]; [11]
  MIC: 1.56 µM (≈ 2.61 µg/mL)
[2]; [12]
  MIC: >100 µM
[2]; [13]
  MIC: 12.5 µM (≈ 20.9 µg/mL)
[2]; [14]
  MIC: >100 µM
[2]; [15]
  MIC: 12.5 µM (≈ 20.9 µg/mL)
E. coli D21; D21, pH 5.5
  Minimal inhibitory concentrations, E. Coli D21: >100 µM
E. coli D21; D21, pH 7.4
  Minimal inhibitory concentrations, E. Coli D21: 50 µM (≈ 83.7 µg/mL)
[3]; [16]
  MIC: 100 µM (≈ 167 µg/mL)
[3]; [17]
  MIC: 12.5 µM (≈ 20.9 µg/mL)
[3]; [18]
  MIC: 100 µM (≈ 167 µg/mL)
[3]; [19]
  MIC: 25 µM (≈ 41.9 µg/mL)
[4]; ATCC 6538, pH 5.5
  Minimal inhibitory concentrations, S. aureus II ATCC 6538P: >100 µM
[4]; ATCC 6538, pH 7.4
  Minimal inhibitory concentrations, S. aureus II ATCC 6538P: 18.75 µM (≈ 31.4 µg/mL)
[5]; ATCC 19606, pH 5.5
  Minimal inhibitory concentrations, A. baumannii ATCC 19606: >100 µM
[5]; ATCC 19606, pH 7.4
  Minimal inhibitory concentrations, A. baumannii ATCC 19606: 50 µM (≈ 83.7 µg/mL)
[6]; ATCC 25922, pH 5.5
  Minimal inhibitory concentrations, E. Coli ATCC 25922: >100 µM
[6]; ATCC 25922, pH 7.4
  Minimal inhibitory concentrations, E. Coli ATCC 25922: 100 µM (≈ 167 µg/mL)
[7]; ATCC 27853, pH 5.5
  Minimal inhibitory concentrations, P. Aeruginosa ATCC 27853: >100 µM
[7]; ATCC 27853, pH 7.4
  Minimal inhibitory concentrations, P. Aeruginosa ATCC 27853: 50 µM (≈ 83.7 µg/mL)
